Consider five molecules from publication PMC10401713, “Silver(I)-Catalyzed Synthesis of Cuneanes from Cubanes and their Investigation as Isosteres” (Journal of the American Chemical Society, 2023).

Series [1] in a line: Aqueous solubility (CheqSol method, Sirius T3). Format: physicochemical. As to conditions: for solubility: water, aqueous buffer, thermodynamic from solid. On the procedure: (§1) 6. Physicochemical Measurements
The logP, pKa in H2O, and aqueous solubility were performed on a Sirius T3 instrument (Pion). The device consists of a pH-meter electrode, a robot that prepares the solutions needed to perform the measurements, and a UV-vis spectrophotometer. Basic titration is performed with a 0.5 M KOH buffer. Acidic titration is performed with a 0.5 M HCl buffer. […]
(§2) (1 picture or pasted object on this page, not shown here)
Solubility measurements were performed using the CheqSol method developed by Pion.22 Because in most cases, compounds are more soluble at pH values where they ionized, the analyte was solubilized in acidic water before pH-titration was performed, measuring the UV-vis spectrum after each addition. The precipitation point was detected from the reduction of the light transmission during UV-vis measurement, or manually when not obvious. The pH-titration was repeated several times around the precipitation point to determine the solubility value by averaging. […]
aqueous solubility (mM) –a […]

Series [2] can be described thus: pKa in H2O by pH-metric titration (Sirius T3). As to conditions: water, average of 3 measurements. Format: physicochemical. On the procedure:
as §1
(§3) The logP, pKa in H2O, and aqueous solubility were performed on a Sirius T3 instrument (Pion). The device consists of a pH-meter electrode, a robot that prepares the solutions needed to perform the measurements, and a UV-vis spectrophotometer. Basic titration is performed with a 0.5 M KOH buffer. Acidic titration is performed with a 0.5 M HCl buffer.
(§4) Log P was determined potentiometrically by using the "Shake flask" method, which consists of dissolving part of the solute in question in a volume of n-octanol and water, then performing pH […]
(§5) To obtain the pKa values, a pH-metric titration experiment was carried out. It can measure pKa values between 2 and 12. An acidic or base titrant was added to reach a starting pH at which the sample is ionized. Then, small volumes of 0.5 M HCl or KOH titrant were added and the pH was measured after each addition. Potentiometric measurement of basic compounds were done from pH 2 to pH 12 by adding 0.5 M KOH solution. Potentiometric measurement of acid ic compounds (20, S1, and 14) were done from pH 12 to pH 2 by adding 0.5 M HCl solution. Measurement points were done every 0.2 pH value. After each addition, the sample was stirred for 60 seconds and the pH value was then collected. The titration experiments were done 3 times and the stated values are averages of the 3 […]
as §2

Series [3] can be described thus: logP measurement (Sirius T3, potentiometric shake-flask method, n-octanol/water). Format: physicochemical. As to conditions: n-octanol and water. The procedure: as §1, §3, §4, §5, §2
Details of series [4]: method as in doi:10.1021/ja983441f. As to conditions: literature value; ref ([32]); cited from earlier work.
On the set-up of series [5]: method as in PMID 36763965. As to conditions: literature value; ref [8b]; cited from earlier work.
On the set-up of series [6]: method as in PMID 36763965. As to conditions: literature value; ref [8b]; cited from earlier work. This is another data set of the same source.
Details of series [7]: method as in PMID 36763965. As to conditions: literature value; ref [8b]; cited from earlier work. The source holds these as a separate data set.
Series [8] in a line: Human liver microsome stability. As to conditions: liver microsomes, pH 7.4, 1 µM compound, 0.5 mg/mL protein, NADPH, 37 °C. Format: in vitro ADME. The procedure:
(§6) 7. Microsome Stability Measurements for the Cuneane Analog of Sonidegib Microsome stability measurements were performed by Sygnature Discovery (Nottingham, United […]
(§7) The microsomal stability of a test compound is assessed by spiking compound into tissue microsomes containing NADPH in buffer and sampling for up t o 1 h at 37 °C. Following protein precipitation and centrifugation, the samples are analy zed by UPLC-MS-MS.
(§8) To assess the metabolic stability of a test compound in tissue microsomes.
(§9) • Compound identifier and molecular formula
(§10) • 20 µL of 1 mM test compound in DMSO or 1 mg solid
(§11) Dilutions of a 1 mM test compound DMSO stock solution are prepared in 0.01 M phosphate buffered saline (pH7.4)) so that the final DMSO concentration is 0.1% and the final test compound concentration tested is 1 µM. Following addition of protein (0.5 mg/mL final) and NADPH, the samples are pre-incubated for 10 min prior to the start of the incubation by the addition of […]. The test compound will be incubated (n = 2; 1 µM final concentration) at 37 °C with tissue microsomes. […]
(§12) All the samples will be mixed, centrifuged and the supernatants analysed by UPLC-MS-MS.
(§13) The intrinsic clearance (Clint) and half-life (t1/2) values will be determined from the slope of the parent depletion curve. […]
(Microsomes from liver hold many membrane-bound enzymes, among them those of drug oxidation.)

Series [9] in a line: Mouse liver microsome stability. The series is classed as in vitro ADME. As to conditions: CD1, mouse, liver microsomes, pH 7.4, 1 µM compound, 0.5 mg/mL protein, NADPH, 37 °C. The procedure: as §6, §7, §8, §9, §10, §11, §12, §13

Converted amounts (≈) assume the structure as drawn. Like-named read-outs stand apart in the source and are kept apart here.

`COC(=O)C12C3C4C5C1C2C3C45C(=O)O` (stereo not drawn) [compound 14]: in series [1], the concentration in solution (solubility) was 210 mM (≈ 43.3 mg/mL). For the same molecule, the pKa (commonly the negative logarithm of the acid dissociation constant) in series [2] came out at 3.99 ± 0.02. The logP (usually the decadic logarithm of the partition coefficient of the neutral form, usually between octanol and water) in [3] was determined as 0.72 ± 0.01.
Turning to `Cc1c(C(=O)Nc2ccc(N3C[C@@H](C)O[C@@H](C)C3)nc2)cccc1-c1ccc(OC(F)(F)F)cc1` [sonidegib], the log partition coefficient (logP) in [4] is 4.26 (ref ([32])). For the same molecule, the aqueous solubility in series [5] is <1.6 × 10^–3 (ref [8b]) mM. In [6], the “mouse liver microsome stability Clint” value was 26 µL/min/mg and the “mouse liver microsome stability t1/2” value is 53 min. Further, in series [7], the “human liver microsome stability Clint” value was 20 µL/min/mg and the “human liver microsome stability t1/2” value is 70 min.
Consider `C[C@@H]1CN(c2ccc(NC(=O)C34C5C6C3C3C4C3(c3ccc(OC(F)(F)F)cc3)C65)cn2)C[C@H](C)O1` (stereo partly drawn) [compound 19], for which the aqueous solubility entry in [1] is on record as “too low to be measured”. For the same molecule, in series [3], the logP turned out to be 4.74 ± 0.23. In addition, the microsomal CLint (in general, the capacity of the preparation to metabolise the compound, expressed as a volume cleared per time) at 1 µM turned out to be 76 µL/min/mg in series [8] and 61 µL/min/mg in series [9]. Further, the half-life at 1 µM was 19 min in series [8] (read-out: human liver microsome stability t1/2) and 23 min in [9] (read-out: mouse liver microsome stability t1/2).
As to `COC(=O)c1ccc(C(=O)O)cc1` [compound 20, 4-(methoxycarbonyl)benzoic acid], the solubility (commonly the concentration that dissolves in the medium under given conditions) in series [1] came to 1.38 mM (≈ 0.249 mg/mL). For the same molecule, the pKa in [2] is 3.84 ± 0.01. This molecule also came in with a logP in [3] of 2.02 ± 0.02.
On the same counts, the results for `COC(=O)C12C3C4C1C1C2C3C41C(=O)O` (stereo not drawn) [S1] are 149 mM (≈ 30.7 mg/mL), 3.96 ± 0.01 and 0.02 ± 0.01.
